Experiments:
Assay type in all cases: biochemical
ABI1 [1] = molecular target: T1, ABI1 (Arabidopsis thaliana, UniProt P49597); assay: Ser/Thr phosphatase assay, single dose […]; parameters: His-ABI1
T1 sequence (P49597 1-434): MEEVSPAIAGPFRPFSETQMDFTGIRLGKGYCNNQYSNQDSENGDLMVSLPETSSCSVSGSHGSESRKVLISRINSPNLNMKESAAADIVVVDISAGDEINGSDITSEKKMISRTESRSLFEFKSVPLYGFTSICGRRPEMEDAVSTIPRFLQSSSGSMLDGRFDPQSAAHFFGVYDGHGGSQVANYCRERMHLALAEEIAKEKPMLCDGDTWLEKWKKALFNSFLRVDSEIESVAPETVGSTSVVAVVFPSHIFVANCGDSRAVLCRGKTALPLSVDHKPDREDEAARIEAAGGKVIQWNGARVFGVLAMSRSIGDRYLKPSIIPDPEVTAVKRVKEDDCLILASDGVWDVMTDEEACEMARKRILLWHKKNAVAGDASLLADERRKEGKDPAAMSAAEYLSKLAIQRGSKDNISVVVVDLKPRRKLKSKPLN

ABI2 = molecular target: T2, ABI2 (Arabidopsis thaliana, UniProt O04719); assay: Ser/Thr phosphatase assay at […] compound; weaker than on ABI1
T2 construct: recombinant His- or GST-tagged ABI2
T2 sequence (O04719 1-423): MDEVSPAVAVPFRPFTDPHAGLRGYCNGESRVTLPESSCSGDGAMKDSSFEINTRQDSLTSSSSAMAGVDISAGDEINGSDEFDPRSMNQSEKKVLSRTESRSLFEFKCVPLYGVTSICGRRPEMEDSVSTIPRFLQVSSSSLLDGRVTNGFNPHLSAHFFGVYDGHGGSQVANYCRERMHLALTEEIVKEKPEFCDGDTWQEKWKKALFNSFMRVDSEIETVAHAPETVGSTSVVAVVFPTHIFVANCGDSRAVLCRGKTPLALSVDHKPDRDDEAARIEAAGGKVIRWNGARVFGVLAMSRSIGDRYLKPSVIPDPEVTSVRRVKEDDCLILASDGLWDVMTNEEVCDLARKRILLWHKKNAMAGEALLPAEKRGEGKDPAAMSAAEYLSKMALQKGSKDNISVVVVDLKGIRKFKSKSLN

ABI1 [2] = molecular target: T1, ABI1; assay: Ser/Thr phosphatase assay (Promega) with phosphopeptide substrate, six-concentration IC50; parameters: recombinant His- or GST-tagged ABI1
ABI1 [3] = molecular target: T1, ABI1; assay: Ser/Thr phosphatase assay, single dose […]; parameters: recombinant His- or GST-tagged ABI1

Compound: COc1cccc(-n2cc(C(=O)Nc3cc(C)ccc3OC)c3ccccc3c2=O)c1 [ZINC09438755]
- Ser/Thr phosphatase assay, single dose 100 μM (ABI1 [1]): Only two molecules ZINC33009768 and ZINC09438755 were found to have significant inhibitory activity

Compound: COC(=O)c1ccccc1NC(=O)Nc1cc(NC(=O)c2ccc(F)cc2)ccc1N1CCCC1 [ZINC33009768]
- Ser/Thr phosphatase assay, single dose 100 μM (ABI1 [1]): Only two molecules ZINC33009768 and ZINC09438755 were found to have significant inhibitory activity

Compound: NCCOc1cc(C(=O)Nc2cc(OCCN)c3ccccc3n2)nc(C(=O)Nc2cc(OCCN)c3ccccc3n2)c1 [ZINC59151964, 4-(2-aminoethoxy)-N2,N6-bis[4-(2-aminoethoxy)-2-quinolinyl]-2,6-pyridinedicarboxamide]
- Ser/Thr phosphatase assay at 100 μM compound; weaker than on ABI1 (ABI2): ZINC59151964 is more efficient against ABI1 than ABI2
- IC50 (ABI1 [2]): 54 ± 8 µM

Compound: ZINC04545840
- % inhibition at 100 μM (ABI1 [3]): 42.6

— publication PMC7524867, “Identification of Novel Inhibitors of a Plant Group A Protein Phosphatase Type 2C Using a Combined In Silico and Biochemical Approach” (Frontiers in Plant Science, 2020)
